Measured values published in US7012067B2, “Blood lipid ameliorant composition” (Sankyo Company, Limited, priority 2000, dated 2006).

Columns and labels:
Assay type in all cases: in vivo
blood free fatty acids = experiment: Blood free fatty acid levels in dogs (ACS-ACOD methods); conditions: beagle dogs, oral once daily, relative to pre-dosing level (100), mean of 5, simvastatin 1 mg/kg
Source text: (§1) Beagle dogs aged 5 months were purchased from Covance Research Products Inc. and used after 1 month of quarantine and acclimatisaton breeding.
(§2) The required amounts of simvastatin or each component of the combination drug calculated from the body weight of each dog were weighed and filled in a gelatin capsule (½ ounce) purchased from TORPAC Inc. Capsules filled with simvastatin were stocked in a refrigerator and those filled with combination drugs stocked at room temperature until use.
(§3) The combination drugs were filled in identical gelatin capsules.
(§4) Simvastatin or combination drug capsules were forcibly orally administered to each of the test animals once daily between 9:00 and 12:30. Animals were fasted for 2 or 3 hr prior to administration of the capsules.
(§5) The administration period was 11 successive days.
(§6) Blood (10 mL) was collected from the superficial radial vein 2 or 1 weeks prior to administration and 4, 8, and 12 days after administration was started. Animals were fasted for approximately 18 hr prior to blood collection. Collected blood was placed in a test tube and left at room temperature for 0.5-1 hr, before being centrifuged (3,000 rpm for 10 min). The obtained serum was used for assays of blood levels of lipid peroxides, total cholesterol, triglycerides, free fatty acids, GOT, and CPK according to Yagi's methods, CEH-COD-POD methods, GK-GPO-POD methods, ACS-ACOD methods, UV-rate methods, and UV-rate methods, respectively. (For ACS-ACOD (Acyl-CoA synthetase-Acyl-CoA oxidase peroxidase) methods, CEH-COD-POD (Cholesterol ester hydrolase-Cholesteroloxidase-Peroxidase) methods, Yagis methods and GK-GPO-POD (Glycerokinase-Glycerolphosphateoxidase-Peroxidase)methods, see: Kanai's Manual of Clinical Laboratory Medicine; 31st Edition (September 1998), Kanehara & Co., Ltd.)
(§7) All these levels were determined using a fluorometer (Hitachi, Ltd., F3000), a full automatic analyzer (Monarch, Instrumentation Laboratory), and an automatic analyzer (7170, Hitachi, Ltd.).
(§8) All these values in dogs treated with one of the drugs described above were converted to their relative ratios against their averaged pre-dosing levels (100) determined 2 and 1 weeks prior to drug administration. The averaged value in each group was obtained from 5 animals per group.

blood triglycerides = experiment: Blood triglyceride levels in dogs (GK-GPO-POD methods); conditions: beagle dogs, oral once daily, relative to pre-dosing level (100), mean of 5
Source text: as §1, §2, §3, §4, §5, §6, §7, §8

GOT = experiment: Serum GOT levels in dogs (UV-rate methods); conditions: beagle dogs, oral once daily, relative to pre-dosing level (100), mean of 5, simvastatin 1 mg/kg, Tocoph 300 mg/kg
Source text: as §1, §2, §3, §4, §5
(§9) Blood (10 mL) was collected from the superficial radial vein 2 or 1 weeks prior to administration and 4, 8, and 12 days after administration was started. Animals were fasted for approximately 18 hr prior to blood collection. Collected blood was placed in a test tube and left at room temperature for 0.5-1 hr, before being centrifuged (3,000 rpm for 10 min). The obtained serum was used for assays of blood levels of lipid peroxides, total cholesterol, triglycerides, free fatty acids, GOT, and CPK according to Yagi's methods, CEH-COD-POD methods, GK-GPO-POD methods, ACS-ACOD methods, UV-rate methods, and UV-rate methods, respectively.
as §8

blood lipid peroxides = experiment: Blood lipid peroxide levels in dogs (Yagi's methods); conditions: beagle dogs, oral once daily, relative to pre-dosing level (100), mean of 5, simvastatin 1 mg/kg
Source text: as §1, §2, §3, §4, §5, §6, §7, §8

blood total cholesterol = experiment: Blood total cholesterol levels in dogs (CEH-COD-POD methods); conditions: beagle dogs, oral once daily, relative to pre-dosing level (100), mean of 5, simvastatin 1 mg/kg, taurine 1000 mg/kg
Source text: as §1, §2, §3, §4, §5, §6, §7, §8

CPK = experiment: Serum CPK levels in dogs (UV-rate methods); conditions: beagle dogs, oral once daily, relative to pre-dosing level (100), mean of 5, simvastatin 1 mg/kg, ascorbic acid 500 mg/kg
Source text: as §1, §2, §3, §4, §5, §9, §8

[1] = simvastatin 1 mg/kg, Tocoph 300 mg/kg
[2] = simvastatin 1 mg/kg (dose cell of simvastatin alone empty), taurine 1000 mg/kg
[3] = simvastatin 1 mg/kg, pantethine 300 mg/kg

SMILES | GOT Levels after administration, 4 days (GOT) | GOT Levels after administration, 8 days (GOT) | GOT Levels after administration, 12 days (GOT) | Blood FFA Levels after administration, 4 days (blood free fatty acids; Tocoph 300 mg/kg) | Blood FFA Levels after administration, 8 days (blood free fatty acids; Tocoph 300 mg/kg) | Blood FFA Levels after administration, 12 days (blood free fatty acids; Tocoph 300 mg/kg) | Blood Triglyceride Levels after administration, 4 days (blood triglycerides; [1]) | Blood Triglyceride Levels after administration, 8 days (blood triglycerides; [1]) | Blood Triglyceride Levels after administration, 12 days (blood triglycerides; [1]) | Blood Lipid Peroxide Levels after administration, 4 days (blood lipid peroxides; taurine 1000 mg/kg) | Blood Lipid Peroxide Levels after administration, 8 days (blood lipid peroxides; taurine 1000 mg/kg) | Blood Lipid Peroxide Levels after administration, 12 days (blood lipid peroxides; taurine 1000 mg/kg) | Blood Triglyceride Levels after administration, 4 days (blood triglycerides; [2]) | Blood Triglyceride Levels after administration, 8 days (blood triglycerides; [2]) | Blood Triglyceride Levels after administration, 12 days (blood triglycerides; [2]) | Blood Total Cholesterol Levels after administration, 4 days (blood total cholesterol) | Blood Total Cholesterol Levels after administration, 8 days (blood total cholesterol) | Blood Total Cholesterol Levels after administration, 12 days (blood total cholesterol) | Blood Lipid Peroxide Levels after administration, 4 days (blood lipid peroxides; RFVb 200 mg/kg) | Blood Lipid Peroxide Levels after administration, 4 days (blood lipid peroxides; ascorbic acid 500 mg/kg) | other results
NCCS(=O)(=O)O [Taurine, 2-aminoethanesulfonic acid] |  |  |  |  |  |  |  |  |  | 95.8 | 93.8 | 87.5 | 98.6 | 95.8 | 80.8 | 95.9 | 90.2 | 87.2 |  |  | 
CCCC(=O)OC[C@@H](OC(=O)CCC)[C@@H](OC(=O)CCC)[C@H](Cn1c2nc(=O)[nH]c(=O)c-2nc2cc(C)c(C)cc21)OC(=O)CCC [RFVb, riboflavin butyrate] |  |  |  |  |  |  |  |  |  |  |  |  |  |  |  |  |  |  | 88.9 |  | Blood Lipid Peroxide Levels after administration, 8 days (blood lipid peroxides; RFVb 200 mg/kg): 101.0; Blood Lipid Peroxide Levels after administration, 12 days (blood lipid peroxides; RFVb 200 mg/kg): 80.8; Blood FFA Levels after administration, 4 days (blood free fatty acids; RFVb 200 mg/kg): 97.6; Blood FFA Levels after administration, 8 days (blood free fatty acids; RFVb 200 mg/kg): 101.2; Blood FFA Levels after administration, 12 days (blood free fatty acids; RFVb 200 mg/kg): 92.9
O=C1O[C@H]([C@@H](O)CO)C(O)=C1O [Ascorbic acid, ascorbic acid] |  |  |  |  |  |  |  |  |  |  |  |  |  |  |  |  |  |  |  | 87.6 | Blood Lipid Peroxide Levels after administration, 8 days (blood lipid peroxides; ascorbic acid 500 mg/kg): 89.9; Blood Lipid Peroxide Levels after administration, 12 days (blood lipid peroxides; ascorbic acid 500 mg/kg): 94.4; CPK Levels after administration, 4 days (CPK): 98.3; CPK Levels after administration, 8 days (CPK): 95.1; CPK Levels after administration, 12 days (CPK): 91.5; Blood FFA Levels after administration, 4 days (blood free fatty acids; ascorbic acid 500 mg/kg): 87.4; Blood FFA Levels after administration, 8 days (blood free fatty acids; ascorbic acid 500 mg/kg): 109.6; Blood FFA Levels after administration, 12 days (blood free fatty acids; ascorbic acid 500 mg/kg): 97.8

Now from value to compound, other results behind:

GOT Levels after administration, 4 days (GOT) | GOT Levels after administration, 8 days (GOT) | GOT Levels after administration, 12 days (GOT) | SMILES | Blood FFA Levels after administration, 4 days (blood free fatty acids; Tocoph 300 mg/kg) | Blood FFA Levels after administration, 8 days (blood free fatty acids; Tocoph 300 mg/kg) | Blood FFA Levels after administration, 12 days (blood free fatty acids; Tocoph 300 mg/kg) | Blood Triglyceride Levels after administration, 4 days (blood triglycerides; [1]) | Blood Triglyceride Levels after administration, 8 days (blood triglycerides; [1]) | Blood Triglyceride Levels after administration, 12 days (blood triglycerides; [1]) | Blood Lipid Peroxide Levels after administration, 4 days (blood lipid peroxides; taurine 1000 mg/kg) | Blood Lipid Peroxide Levels after administration, 8 days (blood lipid peroxides; taurine 1000 mg/kg) | Blood Lipid Peroxide Levels after administration, 12 days (blood lipid peroxides; taurine 1000 mg/kg) | Blood Triglyceride Levels after administration, 4 days (blood triglycerides; [2]) | Blood Triglyceride Levels after administration, 8 days (blood triglycerides; [2]) | Blood Triglyceride Levels after administration, 12 days (blood triglycerides; [2]) | Blood Total Cholesterol Levels after administration, 4 days (blood total cholesterol) | Blood Total Cholesterol Levels after administration, 8 days (blood total cholesterol) | Blood Total Cholesterol Levels after administration, 12 days (blood total cholesterol) | Blood Lipid Peroxide Levels after administration, 4 days (blood lipid peroxides; RFVb 200 mg/kg) | Blood Lipid Peroxide Levels after administration, 4 days (blood lipid peroxides; ascorbic acid 500 mg/kg) | other results
114.9 | 139.7 | 109.1 | CC(=O)Oc1c(C)c(C)c2c(c1C)CC[C@@](C)(CCC[C@H](C)CCC[C@H](C)CCCC(C)C)O2 [Tocoph, d-α-tocopherol acetate] | 115.4 | 103.1 | 86.2 | 106.3 | 119.0 | 75.9 |  |  |  |  |  |  |  |  |  |  |  | 
98.1 | 93.9 | 100.4 | CCC(C)(C)C(=O)O[C@H]1C[C@@H](C)C=C2C=C[C@H](C)[C@H](CC[C@@H]3C[C@@H](O)CC(=O)O3)[C@H]21 [Simvastatin, (+)-(1S,3R,7S,8S,8aR)-1,2,3,7,8,8a-hexahydro-3,7-dimethyl-8-[2-[(2R4R )-tetrahydro-4-hydroxy-6-oxo-2H-pyran-2-yl]ethyl]-1-naphthyl 2,2-dimethylbutanoate] | 93.8 | 99.3 | 97.0 | 96.2 | 86.4 | 91.0 | 96.2 | 86.4 | 91.0 | 97.6 | 88.9 | 89.3 | 102.1 | 93.2 | 86.6 | 96.2 | 96.2 | Blood Lipid Peroxide Levels after administration, 4 days (blood lipid peroxides; pantethine 300 mg/kg): 96.2; Blood Lipid Peroxide Levels after administration, 8 days (blood lipid peroxides; RFVb 200 mg/kg): 86.4; Blood Lipid Peroxide Levels after administration, 8 days (blood lipid peroxides; ascorbic acid 500 mg/kg): 86.4; Blood Lipid Peroxide Levels after administration, 8 days (blood lipid peroxides; pantethine 300 mg/kg): 86.4; Blood Lipid Peroxide Levels after administration, 12 days (blood lipid peroxides; RFVb 200 mg/kg): 91.0; Blood Lipid Peroxide Levels after administration, 12 days (blood lipid peroxides; ascorbic acid 500 mg/kg): 91.0; Blood Lipid Peroxide Levels after administration, 12 days (blood lipid peroxides; pantethine 300 mg/kg): 91.0; CPK Levels after administration, 4 days (CPK): 94.5; CPK Levels after administration, 8 days (CPK): 99.4; CPK Levels after administration, 12 days (CPK): 91.0; Blood FFA Levels after administration, 4 days (blood free fatty acids; RFVb 200 mg/kg): 93.8; Blood FFA Levels after administration, 4 days (blood free fatty acids; ascorbic acid 500 mg/kg): 93.8; Blood FFA Levels after administration, 8 days (blood free fatty acids; RFVb 200 mg/kg): 99.3; Blood FFA Levels after administration, 8 days (blood free fatty acids; ascorbic acid 500 mg/kg): 99.3; Blood FFA Levels after administration, 12 days (blood free fatty acids; RFVb 200 mg/kg): 97.0; Blood FFA Levels after administration, 12 days (blood free fatty acids; ascorbic acid 500 mg/kg): 97.0; Blood Triglyceride Levels after administration, 4 days (blood triglycerides; [3]): 97.6; Blood Triglyceride Levels after administration, 8 days (blood triglycerides; [3]): 88.9; Blood Triglyceride Levels after administration, 12 days (blood triglycerides; [3]): 89.3
